Measured values taken from US8796275B2, “Anti-malarial compounds” (The Trustees of the University of Pennsylvania, priority 2008, dated 2014).
Where two headings read alike, the source gives them in different places.

Columns and labels:
[1] = test system: 3D7 strain of P. falciparum; assay: High throughput quantitative parasite growth assay, luciferase expressing parasites; format: cell-based, Plasmodium falciparum; settings: luciferase readout, approximately 60 hours growth
Experimental: Numerous compounds were initially screened using a high throughput quantitative parasite growth assay that makes use of a strain of parasites expressing a cytoplasmic firefly luciferase (obtained from Dr. Kirk Deitsch, Cornell Medical College). These parasites were transfected with a vector containing the firefly luciferase gene using the malarial HRPII promoter. To grow parasites, culture dishes ranging from 96 well plates to 30 ml dishes were used. […] Parasites were cultured in human RBCs under an atmosphere of 5% O2/7% CO2/88% N2 in RPMI 1640 medium supplemented with 25 mM Hepes, 30 mg/L hypoxanthine, 0.225% (w/v) NaHCO3 and 0.5% (w/v) Albumax II (Life Technologies, Grand Island, N.Y.).
A standard luminescent readout was used to measure the growth of parasites. Parasites were grown under normal conditions, lysed in the presence of the luminescence reagents (Bright Glo, Promega) and then measured. To initially test for growth, luciferase expressing parasites were synchronized using serial sorbitol treatments and then parasitemia, the percentage of RBCS infected with parasites, was adjusted using uninfected RBCs. 100 μl of total media was used in a 96 well format. Parasitized RBCs were incubated in 96 well plates at 37° C. and gassed with 5% CO2, 5% O2, 90% N2. Parasites were allowed to grow for approximately 60 hours, until they successfully divided, ruptured and reinvaded new RBCs. At 10-15 hours post invasion, the cells were lysed, and luciferase levels were measured using an Analyst HT luminometer (Molecular Devices).

P. falciparum 3D7 = assay: Cultures of P. falciparum 3D7, flow cytometry quantitation of parasitemia; format: cell-based; settings: Plasmodium falciparum
Source text: (§1) Flow cytometry was used for quantitation of parasitemia using SYOX Green on an LSRII.

P. falciparum DD2 = assay: microbe, parasite or virus in culture; format: cell-based, Plasmodium falciparum; settings: for IC50: Plasmodium falciparum, DD2, read-out: IC50 (DD2)
Source text: as §1

food vacuole = assay: Food vacuole integrity, parasites expressing plasmepsin II-YFP, fluorescence microscopy; format: cell-based, Plasmodium falciparum; settings: plasmepsin II-YFP marker
[2] = test system: uninfected red blood cells
P. falciparum = assay: Anti-parasitic activity in vitro, human red blood cell assay; format: cell-based, Plasmodium falciparum
Experimental: Anti-parasitic activities were measured in vitro using a human red blood cell assay. A single P. falciparum organism typically infects an erythrocyte and produces 24 progeny within 48 hours following infection. The progeny are released and rapidly infect neighboring red blood cells. […] Observations were also made during the 48 hour incubation period to assess the susceptibility of the parasite during lifecycle stages inside and outside the host erythrocyte. […] One goal of targeting parasite membranes, rather than proteins or metabolic pathways, represents a highly innovative and novel strategy for treating parasitic diseases and distinguishes this approach from most others in this field.

[3] = Plasmodium falciparum, 3D7, 60 h

Structure (SMILES) | IC50 [1, 3] [nM] | also measured
C[C@H]1[C@H](OC(=O)CCC(=O)O)O[C@@H]2O[C@@]3(C)CC[C@H]4[C@H](C)CC[C@@H]1[C@@]24OO3 [Artesunate, artesunate, reference compound] | 9 | 
NCCc1cccc(-c2ccc3sc4ccc(-c5cccc(CCN)c5)cc4c3c2)c1 [Compound 106] | 1150 | IC50 (P. falciparum 3D7; 3D7 strain, read-out: IC50 (3D7)): 150 nM; effectiveness in strain DD2 (P. falciparum DD2; DD2 strain): effective; IC50 (P. falciparum DD2): 100 nM; disruption of food vacuoles (food vacuole): disrupted food vacuoles; cytotoxicity (human HepG2 cells): 40 to 50 µM; hemolytic [2]: Neither compound, however, was hemolytic
c1cc(-c2ccc3sc4ccc(-c5ccnc(N6CCNCC6)c5)cc4c3c2)cc(N2CCNCC2)n1 [Compound 110] | 584 | 
NCCCc1cccc(-c2ccc3sc4ccc(-c5cccc(CCCN)c5)cc4c3c2)c1 [Compound 116] | 318 | IC50 (P. falciparum; Plasmodium falciparum, Erythrocyte, minimum concentration resulting in 50% killing, 48 hour incubation): 50 nM; IC50 (μM) (P. falciparum; minimum concentration resulting in 50% killing, 48 hour incubation): sub-μM; IC100 (P. falciparum; minimum concentration resulting in 100% killing, 48 hour incubation): 0.850 µM; % Kill @ 10 μM (P. falciparum; single concentration 10 μM): 100%
c1cc(N2CCNCC2)ncc1-c1ccc2sc3ccc(-c4ccc(N5CCNCC5)nc4)cc3c2c1 [Compound 117] | 301 | 
NCc1cccc(-c2ccc3[nH]c4ccc(-c5cccc(CN)c5)cc4c3c2)c1 [Compound 118] | 364 | 
NCCCc1cccc(-c2ccc3[nH]c4ccc(-c5cccc(CCCN)c5)cc4c3c2)c1 [Compound 119] | 1860 | 
NCCCc1cccc(-c2ccc3oc4ccc(-c5cccc(CCCN)c5)cc4c3c2)c1 [Compound 120] | 604 | 
N=C(N)NCCCCC(=O)Nc1cc(Br)cc(NC(=O)c2cc(C(=O)Nc3cc(Br)cc(NC(=O)CCCCNC(=N)N)c3SCCNC=O)ncn2)c1SCCNC=O [Compound 125] | 286 | 
NCCCc1ccc(-c2ccc3sc4ccc(-c5ccc(CCCN)cc5)cc4c3c2)cc1 [Compound 130] |  | IC50 [1]: 2560 nM
NCc1cccc(-c2ccc3sc4ccc(-c5cccc(CN)c5)cc4c3c2)c1 [Compound 131] |  | IC50 [1]: 235 nM
c1cc(N2CCNCC2)ccc1-c1ccc2sc3ccc(-c4ccc(N5CCNCC5)cc4)cc3c2c1 [Compound 132] | 236 | 
NCCCc1cccc(-c2ccc3c(c2)-c2cc(-c4cccc(CCCN)c4)ccc2S3(=O)=O)c1 [Compound 133] | 2030 | 
NCCc1cccc(-c2ccc3c(c2)c2cc(-c4cccc(CCN)c4)ccc2[s+]3[O-])c1 [Compound 134] | 2440 | 
COc1ccc(CCN)cc1-c1ccc2sc3ccc(-c4cc(CCN)ccc4OC)cc3c2c1 [Compound 135] | 108 | 
NCCN1CC=C(c2ccc3sc4ccc(C5=CCN(CCN)CC5)cc4c3c2)CC1 [Compound 136] | 958 | 
CCn1c2ccc(-c3cccc(CCCN)c3)cc2c2cc(-c3cccc(CCCN)c3)ccc21 [Compound 137] | 604 | 
C1=C(c2ccc3sc4ccc(C5=CCNCC5)cc4c3c2)CCNC1 [Compound 138] | 213 | 
N=C(N)NCCCc1cccc(-c2ccc3sc4ccc(-c5cccc(CCCNC(=N)N)c5)cc4c3c2)c1 [Compound 139] | 1170 | 
NCCNCc1cncc(-c2ccc3sc4ccc(-c5cncc(CNCCN)c5)cc4c3c2)c1 [Compound 140] | 1670 | 
NCCCc1cccc(-c2ccc3c(c2)-c2cc(-c4cccc(CCCN)c4)ccc2S3(=O)=O)c1 [Compound 141] |  | IC50 [1]: 1340 nM
CCN(CC)CCCC(C)Nc1ccnc2cc(Cl)ccc12 (stereo not shown) [chloroquine, reference compound] |  | IC50 (P. falciparum 3D7; 3D7, read-out: IC50 (3D7)): 20 nM; resistance of DD2 strain relative to 3D7 strain (P. falciparum DD2; DD2 vs 3D7): 4 times; IC50 (P. falciparum DD2): 80 nM
